Results on two molecules are retold here after patent US12233073B2, “Skin care formulations and skin cancer treatment” (Regents of the University of Minnesota, priority 2017, dated 2025).

Data set [1] addresses T1, wildtype PRPK recombinant GST protein (Homo sapiens, UniProt Q96S44).
T1 sequence (Q96S44 1-253): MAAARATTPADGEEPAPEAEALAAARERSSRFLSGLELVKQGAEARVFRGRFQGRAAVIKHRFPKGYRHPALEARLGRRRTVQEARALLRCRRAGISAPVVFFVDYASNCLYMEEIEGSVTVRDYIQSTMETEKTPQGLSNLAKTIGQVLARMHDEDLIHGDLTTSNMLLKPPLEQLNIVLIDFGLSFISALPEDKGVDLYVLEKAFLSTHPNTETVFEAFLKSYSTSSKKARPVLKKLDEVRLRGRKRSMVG
Put plainly: In vitro binding assay, drug-conjugated Sepharose 4B beads with GST-PRPK. The conditions noted are these: pull-down with drug-conjugated Sepharose 4B beads. As to the method:
(§1) The interaction between rocuronium bromide and PRPK, and the inhibition of PRPK phosphorylation by rocuronium bromide was evaluated. In vitro and ex vivo binding assays were conducted using GST-PRPK or A431 cell lysates and rocuronium bromide-conjugated Sepharose 4B beads. FIG. 13A is a photograph illustrating a chromatographic plate showing the interaction and binding of PRPK with rocuronium bromide in A431 cells. FIG. 13B is a photograph illustrating a chromatographic plate showing the interaction and binding of rocuronium bromide with wildtype PRPK recombinant GST protein.
as §1, with “betamethasone 17-valerate” for “rocuronium bromide”, “using recombinant” for “using”, “betamethasone 17-valerate-conjugated” for “rocuronium bromide-conjugated”, “14A” for “13A”, “14B” for “13B”

A further data set has as its target T2, PRPK in A431 lysates (Homo sapiens, UniProt Q96S44).
T2 construct: endogenous in cells; host or cells: A431
T2 sequence (Q96S44 1-253): T1 sequence (Q96S44 1-253)
In words: Ex vivo binding assay, drug-conjugated Sepharose 4B beads with A431 cell lysates. The note with it: pull-down with drug-conjugated Sepharose 4B beads. As to the method:
as §1
as §1, with “betamethasone 17-valerate” for “rocuronium bromide”, “using recombinant” for “using”, “betamethasone 17-valerate-conjugated” for “rocuronium bromide-conjugated”, “14A” for “13A”, “14B” for “13B”

The next data set has as its system PRPK. In words: SSL-induced phosphorylation of PRPK in JB6 cells. The format is cell-based. The note with it: increasing concentrations added to the medium. How it is done: The effect of the binding of rocuronium bromide to PRPK on SSL-induced phosphorylation of PRPK was evaluated. FIG. 13C is a photograph illustrating a chromatographic plate showing the reduction in SSL-induced phosphorylation of PRPK in JB6 cells with increasing concentrations of rocuronium bromide, added into the medium. Thus, rocuronium bromide inhibited sUVL-induced phosphorylation of PRPK.
The effect of the binding of betamethasone 17-valerate to PRPK on SSL-induced phosphorylation of PRPK was evaluated. FIG. 14C is a photograph illustrating a chromatographic plate showing the reduction in SSL-induced phosphorylation of PRPK in JB6 cells with an increasing concentration of betamethasone 17-valerate, added to the medium. Thus, betamethasone 17-valerate inhibited SSL-induced phosphorylation of PRPK.

Data set [2] relates to cyclobutane pyrimidine dimers (CPD). Put plainly: Cyclobutane pyrimidine dimer (CPD) formation in skin of SKH1 hairless mice exposed to acute SSL. The format is in vivo, mouse. The note with it: topical 0.1% or 1%. As to the method: The effect of rocuronium bromide treatment and betamethasone 17-valerate treatment on the formation of cyclobutene pyrimidine dimers was evaluated. sUV-induced DNA damage, predominantly observed as the formation of cyclobutane pyrimidine dimers (CPD), is recognized as an important molecular trigger for the initiation of sUV-induced immunosuppression and carcinogenesis in the skin. FIG. 19A is a chart comparing effect of rocuronium bromide treatment and betamethasone 17-valerate treatment on the formation of cyclobutene pyrimidine dimers in skin tissues from SKH1 hairless mice exposed to acute SSL. FIG. 19C is a photographic array comparing amount of CPD in immunologically stained control mouse skin samples. FIG. 19D is a photographic array comparing amount of CPD in immunologically stained mouse skin samples exposed only to a vehicle. FIG. 19E is a photographic array comparing amount of CPD in immunologically stained mouse skin samples exposed to rocuronium bromide alone. FIG. 19F is a photographic array comparing amount of CPD in immunologically stained mouse skin samples exposed to betamethasone 17-valerate alone. FIG. 19G is a photographic array comparing amount of CPD in immunologically stained mouse skin samples exposed to SSL alone. FIG. 19H is a photographic array comparing amount of CPD in immunologically stained mouse skin samples exposed to SSL with the vehicle. […]

Data set [3] can be described thus: Pharmacokinetics: plasma levels after topical RB cream. In kind it is in vivo, SKH1-Hrhr hairless mice. The note with it: for ng/ml RB (plasma, single mouse): listed as RB; for concentration at 24 h: 24 h post-dose. As to the method:
To assess pharmacokinetics, RB cream (1.0 mg RB in 100 μl cream) was topically applied to the dorsum of SKH1-Hrhr hairless mice (Charles River), and plasma sample were taken at 0, 0.25, 0.5, 1, 2, 6, 24 and 48 hours post-dose (3 mice/time point).

“And” between values parts separate entries of the source, which are not always exact repeats. Equal entries are not always repeated. Where two headings read alike, the source gives them in different places.

Turning to `C=CC[N+]1([C@H]2C[C@H]3[C@@H]4CC[C@H]5C[C@H](O)[C@@H](N6CCOCC6)C[C@]5(C)[C@H]4CC[C@]3(C)[C@H]2OC(C)=O)CCCC1` [rocuronium bromide], the “binding to GST-PRPK” value in data set [1] is listed as “binds”. Moreover, the “binding to PRPK in A431 lysates” value at PRPK in A431 lysates is listed as “binds”. Further, the “SSL-induced phosphorylation of PRPK” value in the data set on PRPK is recorded as “inhibited”. The “sUV-induced CPD production” value in data set [2] is given as “reduced”. The “time of peak plasma levels post application” value in data set [3] (1.0 mg RB in 100 μl cream topically) is not above 15 min. Also, the “ng/ml RB (plasma, single mouse)” value is 3058 ng/mL and 18 ng/mL and 210 ng/mL in data set [3] (0.25 h post-dose, 1.0 mg RB in 100 μl cream topically); 123 ng/mL and 36 ng/mL and 73 ng/mL in data set [3] (0.5 h post-dose, 1.0 mg RB in 100 μl cream topically); 7 ng/mL and 25 ng/mL and 48 ng/mL in data set [3] (1 h post-dose, 1.0 mg RB in 100 μl cream topically); 15 ng/mL in data set [3] (2 h post-dose, 1.0 mg RB in 100 μl cream topically, BDL = below detection limit (~2 ng/ml)); 8 ng/mL in data set [3] (6 h post-dose, 1.0 mg RB in 100 μl cream topically, BDL = below detection limit (~2 ng/ml)). In data set [3] (SKH1-Hrhr hairless, mouse, plasma, topical, 1 mg, 0.25 h post-dose, 3 mice), this molecule registered a concentration at 0.25 h of 1100 ng/mL. In addition, the concentration at 0.5 h in data set [3] (SKH1-Hrhr hairless, mouse, plasma, topical, 1 mg, 0.5 h post-dose, 3 mice) amounted to 77.3 ng/mL. This molecule yielded a concentration at 1 h in data set [3] (SKH1-Hrhr hairless, mouse, plasma, topical, 1 mg, 1 h post-dose, 3 mice) of 26.7 ng/mL. Also, the concentration at 2 h was 11 ng/mL in data set [3] (SKH1-Hrhr hairless, mouse, plasma, topical, 1 mg, 2 h post-dose, 1.0 mg RB in 100 μl cream topically, BDL = below detection limit (~2 ng/ml), read-out: ng/ml RB (plasma, single mouse)) and 8.7 ng/mL in data set [3] (SKH1-Hrhr hairless, mouse, plasma, topical, 1 mg, 2 h post-dose, 3 mice, read-out: MEAN ng/ml RB (plasma)). In addition, the concentration at 6 h amounted to 7 ng/mL in data set [3] (SKH1-Hrhr hairless, mouse, plasma, topical, 1 mg, 6 h post-dose, 1.0 mg RB in 100 μl cream topically, BDL = below detection limit (~2 ng/ml), read-out: ng/ml RB (plasma, single mouse)) and 5 ng/mL in data set [3] (SKH1-Hrhr hairless, mouse, plasma, topical, 1 mg, 6 h post-dose, 3 mice, read-out: MEAN ng/ml RB (plasma)). Besides, the concentration at 24 h is 14 ng/mL in data set [3] (SKH1-Hrhr hairless, mouse, plasma, topical, 1 mg, 1.0 mg RB in 100 μl cream topically, BDL = below detection limit (~2 ng/ml), read-out: ng/ml RB (plasma, single mouse)) and 4.7 ng/mL in data set [3] (SKH1-Hrhr hairless, mouse, plasma, topical, 1 mg, 3 mice, read-out: MEAN ng/ml RB (plasma)). In addition, in data set [3] (post-dose, 1.0 mg RB in 100 μl cream topically), the “time at which RB in plasma approaches baseline levels for the assay” value is reported as “approximately 6 hours”.
For the molecule `CCCCC(=O)O[C@]1(C(=O)CO)[C@@H](C)C[C@H]2[C@@H]3CCC4=CC(=O)C=C[C@]4(C)[C@@]3(F)[C@@H](O)C[C@@]21C` [betamethasone 17-valerate], the “binding to GST-PRPK” value in data set [1] is reported as “binds”. Moreover, on PRPK in A431 lysates, the “binding to PRPK in A431 lysates” value was “binds”. In addition, in the data set with PRPK, the “SSL-induced phosphorylation of PRPK” value is recorded as “inhibited”. Also, the “sUV-induced CPD production” value in data set [2] was “reduced”.
